How the values were obtained:
Human PBMCs [1] = test: Cytokine production in PBMCs: human IL-6 by ELISA; format: cell-based; parameters: key: ″+″ means that there was production of IFNa or IL-6 on PBMC; ″−″means that noproduction of IFNa or IL-6 on PBMC was detected; details: compounds tested at concentration of 10 uM; human PBMCs cultured 20-22 hours; supernatant ELISA
Method: (§1) The compound functionality was tested for some of the compounds prepared by stimulation and determination of cytokine production in PBMCs.
(§2) Human PBMCs were prepared from buffy coat obtained from healthy volunteer donor by Ficoll centrifugation and were adjusted to the final cell concentration to 1×10^6 cells/mL.
(§3) For evaluation of compound activities, 1×10^5 PBMCs were plated in a 96-well plate in 100 μl of RPMI 1640 complete medium (cat no. 31800-022, GIBCO by Life Technologies, Grand Island, NY, USA) supplemented with 10% fetal bovine serum, the tested compound was first dissolved in DMSO and further diluted in PBS and RPMI 1640 medium to the final concentration of […] (corresponding to 6.28 μg/mL), then 3-fold serially dilution was made in a 96-well round-bottom plate. 100 μl diluted compound was added to the same volume of 1×10^5 PBMCs plate and cultured for 20-22 hours at 37° C. in a humidified atmosphere of 5% CO2. The supernatant was collected for human IFN-α, IL12(p70) and IL-6 analysis by ELISA assay according to the manufacturer's instructions (Mabtech AB, Sweden). Resiquimod was used as a positive control.

Human PBMCs [2] = test: Cytokine production in PBMCs: human IFN-α by ELISA; format: cell-based; parameters: key: ″+″ means that there was production of IFNa or IL-6 on PBMC; ″−″means that noproduction of IFNa or IL-6 on PBMC was detected; details: compounds tested at concentration of 10 uM; human PBMCs cultured 20-22 hours; supernatant ELISA
Method: as §1, §2, §3

| SMILES | Production of IL−6 on PBMC (Human PBMCs [1]) | Production of IFNa on PBMC (Human PBMCs [2]) |
| --- | --- | --- |
| CCCCCCCCCCCCCCCCCC(=O)NCCCOc1cccc2nc(N)c3nc(COCC)n(C)c3c12 [Compound 23, N-(3-((4-amino-2-(ethoxymethyl)-1-methyl-1H-imidazo[4,5-c]quinolin-9-yl)oxy)propyl)stearamide] | + | + |
| CCOCc1nc2c(N)nc3cccc(OCCCCNC(C)=O)c3c2n1C [Compound 24, N-(4-((4-amino-2-(ethoxymethyl)-1-methyl-1H-imidazo[4,5-c]quinolin-9-yl)oxy)butyl)acetamide] | + | + |
| CCCCCCCCCCCCCCCCCC(=O)NCCCCOc1cccc2nc(N)c3nc(COCC)n(C)c3c12 [Compound 25, N-(4-((4-amino-2-(ethoxymethyl)-1-methyl-1H-imidazo[4,5-c]quinolin-9-yl)oxy)butyl)-stearamide] | + | + |
| CCOCc1nc2c(N)nc3cccc(OC4CCOC4)c3c2n1C (centres unmarked) [Compound 27, 2-(ethoxymethyl)-1-methyl-9-((tetrahydrofuran-3-yl)oxy)-1H-imidazo[4,5-c]quinolin-4-amine] | + | + |
| CCOCc1nc2c(N)nc3cccc(OC4CCNC4)c3c2n1C (centres unmarked) [Compound 28, 2-(ethoxymethyl)-1-methyl-9-(pyrrolidin-3-yloxy)-1H-imidazo[4,5-c]quinolin-4-amine] | + | + |
| CCOCc1nc2c(N)nc3cccc(OC4CCNCC4)c3c2n1C [Compound 29, 2-(ethoxymethyl)-1-methyl-9-(piperidin-4-yloxy)-1H-imidazo[4,5-c]quinolin-4-amine] | + | + |
| CC(C)CCn1cc2c(n1)c(N)nc1cccc(O)c12 [Compound 31, 4-amino-2-isopentyl-2H-pyrazolo[3,4-c]quinolin-9-ol] | − | − |
| CC(C)CCOc1cccc2nc(N)c3nn(CCC(C)C)cc3c12 [Compound 32, 2-isopentyl-9-(isopentyloxy)-2H-pyrazolo[3,4-c]quinolin-4-amine] | − | − |
| CCCCn1cc2c(n1)c(N)nc1cccc(OCCC(C)C)c12 [Compound 33, 2-butyl-9-(isopentyloxy)-2H-pyrazolo[3,4-c]quinolin-4-amine] | + | − |
| CCCCCCCCCCCCCCCC(=O)NCCCOc1cccc2nc(N)c3nc(COCC)n(C)c3c12 [Compound 34, N-(3-((4-amino-2-(ethoxymethyl)-1-methyl-1H-imidazo[4,5-c]quinolin-9-yl)oxy)propyl)palmitamide] | + | + |
| CCCCCCCCCCCCCCCC(=O)NCCCCOc1cccc2nc(N)c3nc(COCC)n(C)c3c12 [Compound 35, N-(4-((4-amino-2-(ethoxymethyl)-1-methyl-1H-imidazo[4,5-c]quinolin-9-yl)oxy)butyl)palmitamide] | + | + |
| CCOCc1nc2c(N)nc3cccc(OCCCN)c3c2n1C [Compound 36, 9-(3-aminopropoxy)-2-(ethoxymethyl)-1-methyl-1H-imidazo[4,5-c]quinolin-4-amine] | + | + |
| CCOCc1nc2c(N)nc3cccc(OC(C)C)c3c2n1C [Compound 37, 2-(ethoxymethyl)-9-isopropoxy-1-methyl-1H-imidazo[4,5-c]quinolin-4-amine] | + | + |
| CCOCc1nc2c(N)nc3cccc(OCC(C)(C)O)c3c2n1C [Compound 38, 1-((4-amino-2-(ethoxymethyl)-1-methyl-1H-imidazo[4,5-c]quinolin-9-yl)oxy)-2-methylpropan-2-ol] | + | + |
| CCOCc1nc2c(N)nc3cccc4c3c2n1CCO4 [Compound 39, 2-(ethoxymethyl)-3,4-dihydro-5-oxa-1,2a,9-triazanaphtho[2,1,8-cde]azulen-10-amine] | + | + |
| CCOCc1nc2c(N)nc3cccc4c3c2n1C[C@](C)(O)CO4 [Compound 42, (S)-2-amino-12-(ethoxymethyl)-6-methyl-6,7-dihydro-5H-3,4-(azenometheno)[1,5]oxazocino[4,3,2-de]quinolin-6-ol] | + | + |

— patent US11834448B2, “2-amino-quinoline derivatives” (BIRDIE BIOPHARMACEUTICALS, INC., priority 2017, dated 2023)
